In patent US8124778B2, “Tricyclic inhibitors of fatty acid amide hydrolase” (The Scripps Research Institute, priority 2007, dated 2012):

Target: T1, purified recombinant rat FAAH (Rattus norvegicus, UniProt P97612)
T1 construct: The truncated rat FAAH (rFAAH) was expressed in E. coli and purified as described; made in house; host or cells: E. coli
T1 sequence (P97612 30-579 limits assumed): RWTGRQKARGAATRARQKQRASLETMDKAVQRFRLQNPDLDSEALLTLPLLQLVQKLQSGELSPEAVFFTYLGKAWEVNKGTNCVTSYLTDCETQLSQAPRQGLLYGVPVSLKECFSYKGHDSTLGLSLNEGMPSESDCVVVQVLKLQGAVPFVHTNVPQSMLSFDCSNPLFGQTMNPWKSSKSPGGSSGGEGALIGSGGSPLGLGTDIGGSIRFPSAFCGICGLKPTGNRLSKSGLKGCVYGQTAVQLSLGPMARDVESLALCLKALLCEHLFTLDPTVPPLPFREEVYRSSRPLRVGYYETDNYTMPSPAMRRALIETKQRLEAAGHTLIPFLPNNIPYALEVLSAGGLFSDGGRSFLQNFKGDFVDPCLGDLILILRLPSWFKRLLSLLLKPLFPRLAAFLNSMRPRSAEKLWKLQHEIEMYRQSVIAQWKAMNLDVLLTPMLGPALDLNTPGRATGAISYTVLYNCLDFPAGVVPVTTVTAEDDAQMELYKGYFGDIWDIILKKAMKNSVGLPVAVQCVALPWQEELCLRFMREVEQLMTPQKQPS
Experiment: FAAH inhibition enzyme assay (14C-oleamide hydrolysis, Dixon plot)
Type: biochemical
Conditions: rat FAAH
Procedure: Enzyme assays were performed at 20-23° C. with purified recombinant rat FAAH expressed in E. coli (Patricelli, M. P.; Lashuel, H. A.; et al. Biochemistry 1998, 37, 15177-15187) (unless indicated otherwise) or with solubilized COS-7 membrane extracts from cells transiently transfected with human FAAH cDNA (Giang, D. K.; Cravatt, B. F. Proc. Natl. Acad. Sci. U.S.A. 1997, 94, 2238-2242) (where specifically indicated) in a buffer of 125 mM Tris/1 mM EDTA/0.2% glycerol/0.02% Triton X-100/0.4 mM Hepes, pH 9.0 buffer (Patricelli, M. P.; Patterson, J. P.; et al. Bioorg. Med. Chem. Lett. 1998, 8, 613-618). The initial rates of hydrolysis (≦10-20% reaction) were monitored using enzyme concentrations at least three times below the measured Ki by following the breakdown of ^14C-oleamide and Ki's (standard deviations are provided in Supporting Information tables) were established as described (Dixon plot) (Boger, D. L.; Sato, H.; et al. Proc. Natl. Acad. Sci. U.S.A. 2000, 97, 5044-5049). Lineweaver-Burk analysis previously established reversible, competitive inhibition (Boger, D. L.; Miyauchi, H.; et al. J. Med. Chem. 2005, 48, 1849-1856).
FAAH Inhibition. ^14C-labeled oleamide was prepared from ^14C-labeled oleic acid as described (Cravatt, B. F.; et al. Science 1995, 268, 1506-1509). The truncated rat FAAH (rFAAH) was expressed in E. coli and purified as described (Patricelli, M. P.; Lashuel, H. A.; et al. Biochemistry 1998, 37, 15177-15187). The purified recombinant rFAAH was used in the inhibition assays unless otherwise indicated. The full-length human FAAH (hFAAH) was expressed in COS-7 cells as described (Giang, D. K.; Cravatt, B. F. Proc. Natl. Acad. Sci. U.S.A. 1997, 94, 2238-2242), and the lysate of hFAAH-transfected COS-7 cells was used in the inhibition assays where explicitly indicated.
The inhibition assays were performed as described (Cravatt, B. F.; et al. Science 1995, 268, 1506-1509). In brief, the enzyme reaction was initiated by mixing 1 nM of rFAAH (800, 500, or 200 pM rFAAH for inhibitors with Ki≦1-2 nM) with 10 μM of ^14C-labeled oleamide in 500 μL of reaction buffer (125 mM TrisCl, 1 mM EDTA, 0.2% glycerol, 0.02% Triton X-100, 0.4 mM Hepes, pH 9.0) at room temperature in the presence of three different concentrations of inhibitor. The enzyme reaction was terminated by transferring 20 μL of the reaction mixture to 500 μL of 0.1 N HCl at three different time points. The ^14C-labeled oleamide (substrate) and oleic acid (product) were extracted with EtOAc and analyzed by TLC as detailed (Cravatt, B. F.; et al. Science 1995, 268, 1506-1509). The Ki of the inhibitor was calculated using a Dixon plot as described (standard deviations are provided in the Supporting Information tables) (Boger, D. L.; Sato, H.; et al. Proc. Natl. Acad. Sci. U.S.A. 2000, 97, 5044-5049). Lineweaver-Burk analysis was performed as described confirming competitive, reversible inhibition (Boger, D. L.; Miyauchi, H.; et al. J. Med. Chem. 2005, 48, 1849-1856).

Structure (SMILES) | FAAH inhibitory potency (in words)
O=C(CCCCCCc1ccccn1)c1ncc(-c2ccccn2)o1 [5e, 1-Oxo-1-[5-(2-pyridyl)oxazol-2-yl]-7-(2-pyridyl)heptane] | reductions in the Ki
O=C(CCCCCCc1cccnc1)c1ncc(-c2ccccn2)o1 [5f, 1-Oxo-1-[5-(2-pyridyl)oxazol-2-yl]-7-(3-pyridyl)heptane] | reductions in the Ki
